{"source": "patent US5905073A", "about": "“Use of 2-hydroxy-5-phenylazobenzoic acid derivatives as colon cancer chemopreventative and chemotherapeutic agents” (priority 1996, dated 1999)", "key": {"[1]": {"conditions": "cited from earlier work"}, "[2]": {"system": "aberrant crypts induced by azoxymethane (AOM)", "experiment": "Inhibition of azoxymethane-induced aberrant crypt formation (induction study)", "format": "in vivo, rat (F344)", "conditions": "in drinking water, distal 7-8 cm of colon", "text": "Aberrant crypts were originally described in carcinogen-induced colonic mucosa as crypts of \"increased size, thicker epithelial lining and increased pericryptal zones\" (Bird et al. (1989) Cancer Surv. 8:189-200). […] The anti-tumor activity of several of these agents has been confirmed in longer term AOM animal studies. The aberrant crypt model is, therefore, an ideal in vivo assay for efficacy of balsalazide and metabolites.\nInhibition of Aberrant Crypt Induction.\nFour groups of 5 male F344 rats were used. Animals were 6-8 weeks of age at the start of dosing with a starting weight range within +/-20% of the overall mean. The expected response to AOM treatment from published studies is the formation of 100-140 aberrant crypts per animal (Wargovich et al. (1992) J. Cell. Biochem. 16G:51-54). […]\nBody weights were recorded twice weekly, and water consumed by each cage of animals measured twice weekly. Consumption is calculated as average ml/animal/cage.\nFor aberrant crypt analysis, animals were sacrificed under CO2 euthanasia at the end of either three weeks or five weeks of dosing. […] After a saline rinse, the number of foci of aberrant crypts was scored by counting under a microscope at 40-100× magnification. The length of the colonic tissue was also measured. […]"}, "HT-29 cells": {"system": "HT-29 cells", "experiment": "Dose response growth inhibition of HT-29 cells, Sulforhodamine B dye binding assay", "format": "cell-based, human", "conditions": "Homo sapiens", "protocol": "(§1) For dose response studies a sensitive dye binding assay was adapted which allows simultaneous assay of multiple agents and doses in 96-well plates. Cells were plated and allowed to adhere for 24 hours prior to addition of the study drug. Cell densities were then determined 4 days later by fixation of the wells and staining with Sulforhodamine B dye."}, "human colon cancer cells": {"system": "human colon cancer cells", "experiment": "Colon cancer cell proliferation in vitro, comparative statements", "format": "cell-based", "protocol": "(§2) Cells were grown in Dulbeccos Modified Eagle medium supplemented with 10% calf serum in an atmosphere of 5% CO2 at 37° C. For growth experiments, cells were seeded into 24-well tissue culture dishes (2 cm^2 /well) at a density of 20,000 cells/well and allowed to attach for 12 hours. The growth medium was then changed and replaced with fresh media containing the test drugs.\n(§3) The test drugs were dissolved in tissue culture media at the desired concentration and added to individual wells. To determine the number of cells per well, media was removed and the cells washed with phosphate buffered saline solution. The cells were then incubated 15 minutes with trypsin-EDTA solution until detached. The detached cells were then removed from the wells and counted using a Coulter Counter (Model ZBI).\n(§4) The cell numbers shown in Table I are the average of triplicate culture wells.\nas §1, with “dye. Optical density of the stained cultures was then determined using a 96-well plate reader at 495 nm (Skehan et al. (1990) J. Natl. Cancer Inst. 82:1107-1112).” for “dye.”\nTwo such oxidation products, gentisic acid (Dull et al. (1987) Biochem. Pharmacol. 36:2467-2472) and 5-nitro-salicylate (Laffafian et al. (1991) Biochem. Pharmacol. 42:1869-1874) have been elucidated."}, "LoVo cells": {"system": "LoVo cells", "experiment": "Growth inhibition of LoVo colon cancer cells", "format": "cell-based", "conditions": "Homo sapiens, Table IV, read-out: IC50 for inhibition of human colon cancer cell proliferation", "protocol": "as §1"}, "[3]": {"conditions": "rat; cited from earlier work"}, "colonic inflammation": {"system": "colonic inflammation", "conditions": "several animal models of colonic inflammation; cited from earlier work"}, "LS174T cells": {"system": "LS174T cells", "experiment": "Proliferation of LS174T colon cancer cells, Coulter Counter cell count", "format": "cell-based, human", "protocol": "as §2, §3, §4"}, "HRT-18 cells": {"system": "HRT-18 cells", "experiment": "Growth inhibition of HRT-18 colon cancer cells", "format": "cell-based", "conditions": "Homo sapiens; HRT-18, Table IV; read-out: IC50 for inhibition of human colon cancer cell proliferation", "protocol": "as §1"}, "[4]": {"system": "rectal mucosal reactive oxygen metabolite production", "conditions": "cited from earlier work"}}, "note": "pIC50: −log10 of the molar value. “Also recorded” adds a separate entry of the source. Like-named read-outs stand apart in the source and are kept apart here."}
{"compound": "O=C(O)CCNC(=O)c1ccc(/N=N/c2ccc(O)c(C(=O)O)c2)cc1", "note": "[Balsalazide]", "values": [{"measurement": "absorption", "setting": "[1]; oral balsalazide", "value": "virtually unabsorbed through the upper GI tract"}, {"measurement": "drug reaching the colon intact", "setting": "[1]; oral", "value": 99, "unit": "%"}, {"measurement": "inhibition in the average number of aberrant crypts", "setting": "[2]; week 1", "value": 61.8, "unit": "%"}, {"measurement": "inhibition in the average number of aberrant crypts", "setting": "[2]; week five", "value": 58.1, "unit": "%"}, {"measurement": "pIC50", "setting": "HT-29 cells; HT-29, Table IV, read-out: IC50 for inhibition of human colon cancer cell proliferation", "value": 2.24}, {"measurement": "pIC50", "setting": "HT-29 cells; HT-29, text (FIG. 5), read-out: IC50", "value": 2.24}, {"measurement": "inhibition of colon cancer cell growth (in words)", "setting": "human colon cancer cells", "value": "potently inhibitory; also recorded: greater inhibitory response at lower concentrations than did 5-ASA"}, {"measurement": "relative sensitivity of LS174T and HT-29 cells", "setting": "human colon cancer cells; LS174T vs HT-29", "value": "identical between both cell types"}, {"measurement": "pIC50", "setting": "LoVo cells", "value": 2.30}, {"measurement": "maximum tolerated dose", "setting": "[3]", "value": "> 12,000 mg/kg/day"}, {"measurement": "anti-inflammatory activity in animal models", "setting": "colonic inflammation", "value": "possesses anti-inflammatory activity"}, {"measurement": "Cell No. on Day 10", "setting": "LS174T cells; 10 mM, average of triplicate wells", "value": 24925}, {"measurement": "activity at 10000 µM", "setting": "LS174T cells; Homo sapiens, 240 h, read-out: % of Control Cells", "value": 3.51, "unit": "%"}, {"measurement": "pIC50", "setting": "HRT-18 cells", "value": 2.41}, {"measurement": "reduction of rectal mucosal reactive oxygen metabolite production", "setting": "[4]; rectal biopsies, ulcerative colitis patients", "value": "over 90%"}, {"measurement": "effectiveness relative to taurine, ascorbate or N-acetyl cysteine", "setting": "[4]; similar concentrations", "value": "more effective"}]}
